From ChEMBL document CHEMBL5223107 (Bioorg Med Chem Lett, 2022)

What follows are molecules tested against T1, Androgen receptor (Homo sapiens, UniProt P10275) (assay: Inhibition of androgen receptor in human LNCaP cells assessed as inhibition of AR transcription activity by dual-luciferase reporter assays). Details: not given.
T1 sequence (P10275 whole entry): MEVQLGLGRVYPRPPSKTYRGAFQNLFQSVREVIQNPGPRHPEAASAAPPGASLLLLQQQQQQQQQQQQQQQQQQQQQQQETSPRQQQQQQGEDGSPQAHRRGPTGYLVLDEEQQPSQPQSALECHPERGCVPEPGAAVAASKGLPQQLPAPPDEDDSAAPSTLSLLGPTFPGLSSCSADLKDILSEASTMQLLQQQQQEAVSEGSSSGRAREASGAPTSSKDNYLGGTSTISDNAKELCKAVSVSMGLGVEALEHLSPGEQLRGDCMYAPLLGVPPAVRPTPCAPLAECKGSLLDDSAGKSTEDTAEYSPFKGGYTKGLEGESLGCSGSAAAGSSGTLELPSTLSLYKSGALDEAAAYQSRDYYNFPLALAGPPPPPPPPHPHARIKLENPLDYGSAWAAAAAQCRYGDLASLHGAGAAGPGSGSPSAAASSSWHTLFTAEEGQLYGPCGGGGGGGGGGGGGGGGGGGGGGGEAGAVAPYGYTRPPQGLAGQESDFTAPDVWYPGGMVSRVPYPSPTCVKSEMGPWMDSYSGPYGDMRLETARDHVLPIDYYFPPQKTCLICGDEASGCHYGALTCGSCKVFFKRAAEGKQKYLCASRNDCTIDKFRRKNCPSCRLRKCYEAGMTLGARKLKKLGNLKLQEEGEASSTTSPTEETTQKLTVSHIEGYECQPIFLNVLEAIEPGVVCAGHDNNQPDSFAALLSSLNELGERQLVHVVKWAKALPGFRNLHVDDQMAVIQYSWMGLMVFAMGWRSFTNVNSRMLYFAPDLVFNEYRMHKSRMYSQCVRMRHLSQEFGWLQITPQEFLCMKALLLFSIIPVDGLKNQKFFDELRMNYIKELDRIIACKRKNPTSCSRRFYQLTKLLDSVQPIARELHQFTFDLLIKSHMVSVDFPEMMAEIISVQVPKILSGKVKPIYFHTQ
Assay type: cell-based

Row | Structure (SMILES) | IC50
1 | Cc1cccc(COCc2c(C=O)c(O)c(O)c(C)c2-c2ccccc2)c1 | 4.53 µM
2 | Cc1c(O)c(O)c(C=O)c2c1C(C#Cc1ccc(Br)cc1)CC2 (stereo not drawn) | > 5 µM
3 | Cc1c(O)c(O)c(C=O)c(COCc2ccccc2)c1-c1ccc(C(F)(F)F)cc1 | 1.23 µM
4 | Cc1cc(COCc2ccccc2)c(C=O)c(O)c1O | > 5 µM
5 | Cc1c(O)c(O)c(C=O)c(COCc2ccccc2)c1-c1cccc(Br)c1F | > 5 µM
6 | Cc1c(O)c(O)c(C=O)c(CSCCC(C)C)c1-c1ccccc1 | > 5 µM
7 | Cc1c(O)c(O)c(C=O)c(COCc2ccccc2F)c1-c1ccc(F)cc1 | > 5 µM
8 | Cc1cccc(-c2c(C)c(O)c(O)c(C=O)c2COCc2ccccc2)c1 | > 5 µM
9 | Cc1c(O)c(O)c(C=O)c(COCc2ccccc2)c1-c1ccc(Cl)cc1Br | > 5 µM
10 | Cc1c(O)c(O)c(C=O)c(COCc2ccccc2)c1-c1ccccc1 | > 5 µM
11 | Cc1ccc(-c2c(C)c(O)c(O)c(C=O)c2COCc2ccccc2)cc1 | 3.27 µM
12 | CCc1cc(COCc2ccccc2)c(C=O)c(O)c1O | > 5 µM
13 | Cc1c(O)c(O)c(C=O)c(COCc2ccccc2F)c1-c1cccc(F)c1 | > 5 µM
14 | Cc1c(O)c(O)c(C=O)c(COCc2cccc(F)c2)c1-c1ccc(F)cc1 | 2.58 µM
15 | Cc1c(O)c(O)c(C=O)c(COCc2ccccc2)c1-c1ccc(Br)cc1 | 3.47 µM
16 | Cc1c(O)c(O)c(C=O)c(COCc2cccc(C(F)(F)F)c2)c1-c1ccccc1 | 3.05 µM
17 | Cc1c(O)c(O)c(C=O)c(COCc2ccccc2)c1-c1cc(C(F)(F)F)cc(C(F)(F)F)c1 | 4.39 µM
18 | Cc1ccc(F)cc1-c1c(C)c(O)c(O)c(C=O)c1COCc1ccccc1 | > 5 µM
19 | C=CCc1c(C)c(O)c(O)c(C=O)c1COCc1ccccc1 | > 5 µM
20 | Cc1c(O)c(O)c(C=O)c(COCc2cccc(F)c2)c1-c1ccccc1 | 4.05 µM
21 | Cc1c(O)c(O)c(C=O)c(COCc2ccc(F)cc2)c1-c1ccc(F)cc1 | 2.41 µM
22 | COc1ccccc1-c1c(C)c(O)c(O)c(C=O)c1COCc1ccccc1 | > 5 µM
23 | Cc1c(O)c(O)c(C=O)c(COCc2ccccc2)c1-c1ccccc1OC(F)(F)F | > 5 µM
24 | CC(C)=CCC/C(C)=C/COCc1cc(C)c(O)c(O)c1C=O | > 5 µM
25 | Cc1c(O)c(O)c(C=O)c(COCc2ccccc2)c1-c1ccc(C(F)(F)F)cc1Br | 4.08 µM
26 | Cc1c(O)c(O)c(C=O)c(COCc2ccc(F)cc2)c1-c1ccc(C(F)(F)F)cc1 | 2.14 µM

Row | Structure (SMILES) | IC50
27 | Cc1c(O)c(O)c(C=O)c(COCc2ccccc2)c1-c1ccc(F)c(F)c1 | 2.05 µM
28 | C=C(C)Cc1c(C)c(O)c(O)c(C=O)c1COCc1ccccc1 | > 5 µM
29 | Cc1c(O)c(O)c(C=O)c(CO[C@H]2CC[C@@]3(C)C(=CC[C@@H]4[C@@H]3CC[C@]3(C)C(=O)CC[C@@H]43)C2)c1-c1ccccc1 | 3.22 µM
30 | Cc1c(O)c(O)c(C=O)c(COCc2ccccc2)c1-c1ccc(Br)cc1F | 3.39 µM
31 | Cc1c(O)c(O)c(C=O)c(COCc2ccccc2F)c1-c1ccccc1 | > 5 µM
32 | COC(=O)c1ccc(-c2c(C)c(O)c(O)c(C=O)c2COCc2ccccc2)cc1 | 4.23 µM
33 | Cc1c(O)c(O)c(C=O)c(COCc2cccc3ccccc23)c1-c1ccccc1 | > 5 µM
34 | CCc1c(O)c(O)c(C=O)c(COCc2ccccc2)c1-c1ccccc1 | > 5 µM
35 | COc1cccc(COCc2c(C=O)c(O)c(O)c(C)c2-c2ccccc2)c1 | > 5 µM
36 | Cc1c(O)c(O)c(C=O)c(COCc2ccccc2)c1-c1ccc(-c2ccccc2)cc1 | > 5 µM
37 | Cc1c(O)c(O)c(C=O)c(COCc2ccccc2)c1-c1cccc2ccccc12 | > 5 µM
38 | Cc1cc(CO[C@H]2CC[C@@]3(C)C(=CC[C@@H]4[C@@H]3CC[C@]3(C)C(=O)CC[C@@H]43)C2)c(C=O)c(O)c1O | > 5 µM
39 | COc1ccc(-c2c(C)c(O)c(O)c(C=O)c2COCc2ccccc2)cc1 | > 5 µM
40 | Cc1c(O)c(O)c(C=O)c(COCc2ccccc2)c1-c1ccc(Cl)cc1 | 4.9 µM
41 | Cc1c(O)c(O)c(C=O)c(COCc2ccc(F)cc2)c1-c1ccccc1 | 2.38 µM
42 | Cc1c(O)c(O)c(C=O)c(COCc2ccccc2C(F)(F)F)c1-c1ccccc1 | 2.54 µM
43 | Cc1cc(C)cc(-c2c(C)c(O)c(O)c(C=O)c2COCc2ccccc2)c1 | > 5 µM
44 | CC(C)c1cc(COCc2ccccc2)c(C=O)c(O)c1O | > 5 µM
45 | C=CCc1c(C)c(O)c(O)c(C=O)c1COCc1ccc(OC)cc1 | > 5 µM
46 | Cc1c(O)c(O)c(C=O)c(COCc2ccc(C(F)(F)F)cc2)c1-c1ccccc1 | 3.32 µM
47 | Cc1c(O)c(O)c(C=O)c(COCc2cccc(F)c2)c1-c1ccc(C(F)(F)F)cc1 | 2.09 µM
48 | Cc1ccc(COCc2c(C=O)c(O)c(O)c(C)c2-c2ccccc2)cc1 | > 5 µM
49 | Cc1c(O)c(O)c(C=O)c(COCc2ccccc2)c1-c1cc(F)ccc1F | > 5 µM
50 | Cc1c(O)c(O)c(C=O)c(COCc2cccc(Cl)c2Cl)c1-c1ccccc1 | 2.81 µM
51 | COc1ccccc1COCc1c(C=O)c(O)c(O)c(C)c1-c1ccccc1 | > 5 µM
52 | Cc1c(O)c(O)c(C=O)c(COCc2ccccc2)c1-c1ccccc1Br | > 5 µM

Row | Structure (SMILES) | IC50
53 | Cc1c(O)c(O)c(C=O)c(COCc2ccccc2)c1-c1ccc(C(F)(F)F)cc1Cl | 3.25 µM
54 | Cc1c(O)c(O)c(C=O)c(COCc2ccccc2)c1-c1ccc(F)cc1 | > 5 µM
55 | Cc1ccccc1-c1c(C)c(O)c(O)c(C=O)c1COCc1ccccc1 | > 5 µM
56 | Cc1c(O)c(O)c(C=O)c(COCc2ccccc2)c1-c1ccccc1Cl | > 5 µM
57 | Cc1c(O)c(O)c(C=O)c(COCc2ccccc2)c1-c1ccc(Cl)cc1C(F)(F)F | > 5 µM
58 | COc1ccc(COCc2cc(C)c(O)c(O)c2C=O)cc1 | > 5 µM
59 | Cc1c(O)c(O)c(C=O)c(COCc2ccccc2)c1CO[Si](C)(C)C | > 5 µM
60 | Cc1c(O)c(O)c(C=O)c(COCc2cccc(F)c2)c1-c1cccc(F)c1 | 2.89 µM
61 | Cc1c(O)c(O)c(C=O)c(COCc2ccccc2)c1-c1ccc(F)cc1Cl | > 5 µM
62 | Cc1c(O)c(O)c(C=O)c(COCc2ccccc2C(F)(F)F)c1-c1cccc(F)c1 | > 5 µM
63 | Cc1c(O)c(O)c(C=O)c(COCc2ccc(OC(F)(F)F)cc2)c1-c1ccccc1 | 2.72 µM
64 | Cc1c(O)c(O)c(C=O)c2c1[C@@H](c1ccc(C(=O)O[C@H]3CC[C@@]4(C)C(=CC[C@H]5[C@@H]6CC[C@H]([C@H](C)CCCC(C)C)[C@@]6(C)CC[C@@H]54)C3)cc1)CC2 | > 5 µM
65 | Cc1c(O)c(O)c(C=O)c(COCc2ccccc2)c1-c1ccc(OC(F)(F)F)cc1 | 4.49 µM
66 | C#CCOCc1c(C=O)c(O)c(O)c(C)c1-c1ccccc1 | > 5 µM
67 | Cc1c(O)c(O)c(C=O)c(COCc2ccccc2)c1-c1ccc([N+](=O)[O-])cc1 | 3.74 µM
68 | Cc1c(O)c(O)c(C=O)c(COCc2ccc(F)cc2)c1-c1cccc(F)c1 | 2.09 µM
69 | Cc1c(O)c(O)c(C=O)c(COCc2ccccc2)c1-c1ccccc1C(F)(F)F | > 5 µM
70 | Cc1c(O)c(O)c(C=O)c(COCc2ccccc2)c1-c1ccccc1C#N | > 5 µM
71 | Cc1c(O)c(O)c(C=O)c(COCc2ccccc2)c1-c1ccc(F)cc1F | 2.3 µM
72 | Cc1c(O)c(O)c(C=O)c(COCc2ccccc2)c1-c1ccc(Br)c(F)c1 | 2.19 µM
73 | Cc1c(O)c(O)c(C=O)c2c1C1(CC2)c2ccccc2-c2ccccc21 | > 5 µM
74 | Cc1c(O)c(O)c(C=O)c(COCc2ccccc2)c1-c1cccs1 | > 5 µM
75 | Cc1c(O)c(O)c(C=O)c(COCc2ccccc2)c1-c1ccc(C(C)(C)C)cc1 | 3.51 µM
76 | Cc1c(C)c(COCc2ccccc2)c(C=O)c(O)c1O | > 5 µM
77 | Cc1c(O)c(O)c(C=O)c(COCc2ccccc2F)c1-c1ccc(C(F)(F)F)cc1 | 2.52 µM

Each molecule was assayed on CWR22R (assay: Antiproliferative activity against human 22Rv1 cells assessed as cell growth inhibition incubated for 72 hrs by MTT assay). Details: 22Rv1, 72 h.
Assay type: functional, cell-based

Row | Structure (SMILES) | IC50
78 | CNC(=O)c1ccc(N2C(=S)N(c3ccc(C#N)c(C(F)(F)F)c3)C(=O)C2(C)C)cc1F [ENZALUTAMIDE] | 46.3 µM
